From the supplement of paper PMC13380429

Experiments:
Details in all cases: 72 h
Calu-3 [1] = test: cell viability relative to DMSO; higher = less toxic
Vero E6 [2] = test: as above
Caco-2 [3] = test: as above
U2OS [4] = test: as above
Calu-3 [5] = test: drug sensitivity score (DSS) for viability; higher = more toxic; extreme values may be limits of the assay
Vero E6 [6] = test: as above
Caco-2 [7] = test: as above
U2OS [8] = test: as above
Calu-3 [9] = test: relative viability EC50 (midpoint between 100% and the lowest measured viability); higher = less toxic
Vero E6 [10] = test: as above
Caco-2 [11] = test: as above
U2OS [12] = test: as above
HepG2 [13] = test: cell viability relative to DMSO; higher = less toxic
HepG2 [14] = test: drug sensitivity score (DSS) for viability; higher = more toxic; extreme values may be limits of the assay

| SMILES | cell viability (Calu-3 [1]; 1 nM) | cell viability (Calu-3 [1]; 10 nM) | cell viability (Calu-3 [1]; 100 nM) | cell viability (Calu-3 [1]; 1000 nM) | cell viability (Calu-3 [1]; 10000 nM) | cell viability (Vero E6 [2]; 1 nM) | cell viability (Vero E6 [2]; 10 nM) | cell viability (Vero E6 [2]; 100 nM) | cell viability (Vero E6 [2]; 1000 nM) | cell viability (Vero E6 [2]; 10000 nM) | cell viability (Caco-2 [3]; 1 nM) | cell viability (Caco-2 [3]; 10 nM) | cell viability (Caco-2 [3]; 100 nM) | cell viability (Caco-2 [3]; 1000 nM) | cell viability (Caco-2 [3]; 10000 nM) | cell viability (U2OS [4]; 1 nM) | cell viability (U2OS [4]; 10 nM) | cell viability (U2OS [4]; 100 nM) | cell viability (U2OS [4]; 1000 nM) | cell viability (U2OS [4]; 10000 nM) | drug sensitivity score (Calu-3 [5]) | drug sensitivity score (Vero E6 [6]) | drug sensitivity score (Caco-2 [7]) | drug sensitivity score (U2OS [8]) | relative viability EC50 (Calu-3 [9]) | relative viability EC50 (Vero E6 [10]) | relative viability EC50 (Caco-2 [11]) | relative viability EC50 (U2OS [12]) | cell viability (HepG2 [13]; 1 nM) | cell viability (HepG2 [13]; 10 nM) | cell viability (HepG2 [13]; 100 nM) | cell viability (HepG2 [13]; 1000 nM) | cell viability (HepG2 [13]; 10000 nM) | drug sensitivity score (HepG2 [14]) |
| --- | --- | --- | --- | --- | --- | --- | --- | --- | --- | --- | --- | --- | --- | --- | --- | --- | --- | --- | --- | --- | --- | --- | --- | --- | --- | --- | --- | --- | --- | --- | --- | --- | --- | --- |
| COc1ccccc1N1CCN(CCCCN2C(=O)CCC2=O)CC1 [MM77] | 104% | 100% | 96.6% | 114% | 107% | 94.5% | 93.4% | 92.7% | 94% | 110% | 92.4% | 102% | 83.8% | 102% | 106% | 100% | 101% | 94.9% | 106% | 97.2% | 0 | 0 | 0 | 0 | > 10 µM | > 10 µM | > 10 µM | > 10 µM |  |  |  |  |  |  |
| COc1ccccc1S(=O)(=O)Nc1ccc2c(c1)CN(C)C(=O)N2 [PFI-1] | 102% | 92.6% | 102% | 88% | 58.2% | 102% | 102% | 96.2% | 81.5% | 16.3% | 102% | 102% | 107% | 94% | 75.7% |  |  |  |  |  | 3.9 | 7.6 | 1.7 |  |  | 1.65 µM | > 10 µM |  | 108% | 103% | 94.3% | 94.4% | 50.1% | 3.6 |
| CNC(=O)COC(=O)NCCC1CCN(c2cccc(C)n2)CC1 [SA-47] | 98.4% | 101% | 105% | 103% | 105% | 85.7% | 97.6% | 90.7% | 92.7% | 110% | 90.7% | 101% | 97.7% | 99.3% | 94% | 92.8% | 101% | 103% | 97.7% | 99.2% | 0 | 0 | 0 | 0 | > 10 µM | > 10 µM | > 10 µM | > 10 µM |  |  |  |  |  |  |
| CCc1cccc(CC)c1NC1=NCCN1 [ST-91] | 104% | 90.2% | 96.6% | 89.6% | 115% | 98.9% | 97.1% | 102% | 98.3% | 93.5% | 102% | 101% | 96.2% | 93.4% | 100% | 103% | 98.7% | 104% | 94.8% | 99% | 0 | 0 | 0 | 0 | > 10 µM | > 10 µM | > 10 µM | > 10 µM |  |  |  |  |  |  |
| Cc1cc(C)nc(SCC(=O)Nc2ncc(Cc3cccc4ccccc34)s2)n1 [SirReal-2] | 97% | 95.7% | 95.1% | 91% | 102% |  |  |  |  |  | 104% | 101% | 93.4% | 99.6% | 96.6% | 94.7% | 103% | 96.6% | 101% | 92.8% | 0 |  | 0 | 0 | > 10 µM |  | > 10 µM | > 10 µM |  |  |  |  |  |  |
| C=CC(=O)O [acrylate] |  |  |  |  |  |  |  |  |  |  |  |  |  |  |  |  |  |  |  |  | 0 | 0 |  | 0 |  |  |  |  |  |  |  |  |  | 0 |
| CC(=O)[C@@]12O[C@](C)(c3ccccc3)O[C@@H]1C[C@H]1[C@@H]3CCC4=CC(=O)CC[C@]4(C)[C@H]3CC[C@@]12C [algestone-acetophenide] | 105% | 100% | 96.3% | 109% | 86.4% | 101% | 96.6% | 87.5% | 92.3% | 102% | 104% | 94.2% | 97.5% | 100% | 78.5% | 99.7% | 95.2% | 99.3% | 98.4% | 91.8% | 0 | 0 | 0.7 | 0 | > 10 µM | > 10 µM | > 10 µM | > 10 µM | 98.3% | 108% | 102% | 103% | 71.7% | 1 |
| CN(C)CCc1c[nH]c2ccc(CS(=O)(=O)N3CCCC3)cc12 [almotriptan] | 98.8% | 103% | 108% | 97.8% | 106% |  |  |  |  |  | 92.9% | 97.9% | 99.9% | 109% | 106% | 101% | 104% | 101% | 98.6% | 100% | 0 |  | 0 | 0 | > 10 µM |  | > 10 µM | > 10 µM |  |  |  |  |  |  |
| C1=C2CCCN[C@H]2[C@@H]2C[C@H]1[C@H]1CCCCN1C2 [aloperine] | 91.1% | 99.2% | 90.7% | 85% | 83.1% | 102% | 100% | 104% | 99.4% | 98.1% | 96.4% | 108% | 104% | 106% | 94.4% | 96.8% | 102% | 92.8% | 100% | 94.1% | 1.4 | 0 | 0 | 0 | > 10 µM | > 10 µM | > 10 µM | > 10 µM |  |  |  |  |  |  |
